Test results taken from paper PMC10257291, “Biological activities of extracts and compounds from Thai Kae-Lae (Maclura cochinchinensis (Lour.) Corner)” (BMC Complementary Medicine and Therapies, 2023).
“Also recorded” adds a separate entry of the source.

How the values were obtained:
MCF-7 cells = experiment: Cell migration assay (wound healing scratch); type: cell-based, human; conditions: non-toxic dose, after 24 h of wounding
Method: Inhibitory effect of the extracts on cell migration of MCF-7 cells was assessed by wound healing scratch assays. First, cells were plated into 24-well plates and incubated in a CO2 incubator with humidified atmosphere of 5% CO2. After reaching the confluent monolayer forms, a longitudinal wound was created by scratching using SPLTM Scar Scratcher. Then, the non-toxic dose of each extract in complete DMEM medium was added into each well and cell migration was monitored and observed under Leica DM IL LED inverted microscopy and the images of cell-free area were captured at 0, 6, 12, and 24 h after wounding, then measured using ImageJ software. The percentage of wound width was calculated by the following formula:6 Woundwidth(%)=(Cell-[…] Where “Cell-free […]” is the cell-free area at any time point of imaging while “Cell-free area0.h” is the cell-free area at the beginning of wounding.

WT1 protein [1] = experiment: WT1 protein expression by Western blot in KG-1a cells; type: cell-based, human; conditions: IC20 value, 48 h, vs vehicle control
Method: (§1) Leukaemic stem cells (KG-1a) and leukaemic cells (EoL-1 and K562) were used as cell models which overexpressed WT1 protein expression. Cells were treated with crude fractional extracts and active compounds at a 20% growth inhibition (IC20 value) of each extract. Following 48-h of incubation, cells were washed. The whole protein was extracted using RIPA buffer. The protein concentration was determined by the Pierce™ BCA Protein Assay Kit (ThermoFisher Scientific, IL, USA). Extracted protein sample at 30 − 50 μg was loaded to 12% SDS-PAGE and then transferred to PVDF membranes. The method was done as previously described. The specific protein bands were determined by Luminata™ Forte Western HRP substrate (Merck, Darmstadt, Germany) and exposed to X-ray film (Sakura, Japan). Quantity One 1-D Analysis software (Bio-Rad, USA) was used to quantify densitometry. The density values of WT1 bands were normalized to GAPDH bands.

ABTS assay = conditions: compared in words
Method: Briefly, the sample (20 μL) was mixed with of the ABTS^•^+ solution (180 μL) that had been prepared overnight. The combined mixture was incubated at room temperature (25 °C) for 5 min before assessing the UV absorbance at 750 nm with a microplate reader (Spectrostar Nano, BMG Labtech GmbH, Ortenberg, Germany). The findings were described as Trolox equivalent antioxidant capacity (TEAC). All experiments were conducted in triplicate.

DPPH assay = conditions: compared in words
Method: The DPPH^• scavenging activity of crude fractional extracts and their biological active compounds were investigated using DPPH assay. Briefly, the sample (20 μL) was mixed with 167 μM DPPH solution (180 μL). The combined mixture was incubated at room temperature (25 °C) in the dark for 30 min before assessing the UV absorbance at 520 nm with a microplate reader (Beckman CoulterDTX880, Fullerton, CA, USA). The DPPH^• scavenging activity was presented in terms of the percentage of inhibition that was calculated using the following equation: 2 %DPPH^·inhibition=A-B/A×100 A is the UV absorbance of the mixture in the absence of a sample solution, and B is the UV absorbance of the mixture in the […] of a sample solution. L-ascorbic acid served as a positive control. All experiments were conducted in triplicate.

FRAP assay = conditions: compared in words
Method: Briefly, sample (20 μL) was mixed with FRAP solution (180 μL). The combined mixture was incubated at room temperature (25 °C) in the dark for 5 min before assessing the UV absorbance was measured at 595 nm with a microplate reader (Beckman CoulterDTX880, Fullerton, CA, USA). The findings were described as equivalent concentration (EC1). L-ascorbic acid served as a positive control. All experiments were conducted in triplicate.

WT1 protein [2] = experiment: WT1 protein expression by Western blot in K562 cells; type: cell-based, human; conditions: IC20 value, 48 h, vs vehicle control
Method: as §1

EoL-1 cells = experiment: Total cell number by trypan blue exclusion, EoL-1 cells; type: cell-based, human; conditions: IC20 value, 48 h, vs vehicle control
Method: (§2) According to the principle of trypan blue exclusion, viable cells with intact membranes can exclude trypan blue dye, while dead cells with compromised membranes are stained by the trypan blue dye solution. A cell suspension and trypan blue dye solution (0.2%) were mixed, and viable and dead cells were counted under microscope using a hemacytometer. Then, the percentage of viable cells was calculated. KG-1a, EoL-1 and K562 cells were cultured with crude fractional extracts and active pure compounds at various concentrations (10 − 20% growth inhibition; IC10 − IC20 values) of each extract for 48 h, at a 20% growth inhibition (IC20 value) of each extract for 24 and 48 h. Following incubation, cells were harvested, and the total cell number was counted using trypan blue exclusion method. Three independent experiments were plotted as a dose–response curve and compared with the vehicle control. Meanwhile, the total cell number of each cell line after fractional extract and pure compound treatments at 24 and 48 h were calculated and plotted as a time-response curve. Slopes from each graph were considered as the rate of cell proliferation.

KG-1a cells [3] = experiment: Total cell number by trypan blue exclusion, KG-1a cells; type: cell-based, human; conditions: IC20 value, 48 h, vs vehicle control
Method: as §2

KG-1a cells [4] = experiment: Rate of proliferation, KG-1a cells; type: cell-based, human; conditions: for decrease of rate of proliferation, KG-1a cells: IC20 value, 24 and 48 h (time-response), vs control; for rate of cell proliferation, KG-1a cells (in words): concentrations IC10 − IC20 values, 48 h
Method: as §2

NO = experiment: Nitric oxide measurement in LPS-stimulated RAW 264.7 cells; type: cell-based, mouse; conditions: sample at IC20 value; vs dexamethasone; LPS 1 μg/mL
Method: Mouse monocyte macrophage RAW 264.7 cells (American Type Culture Collection, ATCCTIB-71) were stimulated with lipopolysaccharide (LPS) or phytohemagglutinin (PHA). The LPS treated RAW 264.7 cells served as a vehicle control, of which the NO production, and the secreted cytokines were defined as 100%, whereas a negative control was non-treated RAW 264.7 cells. Dexamethasone (an anti-inflammatory drug) was used as a positive control.
Briefly, 1 × 10^5 cells/well in DMEM were seeded and incubated for 24 h in a CO2 incubator set at 37 °C and 5% CO2/95% humidified air. Then cells were treated with Kae-Lae extracts or purified compounds. Following 2-h of incubation in a CO2 incubator, LPS was added to make a final concentration of 1 μg/mL. After 24 h in a CO2 incubator, the media were removed and centrifuged at 13,500 × g for 10 min. The supernatant was analysed for the level of NO using Total Nitric Oxide Assay kit, according to the manufacturer’s protocol (Invitrogen™, ThermoFisher Scientific, MA, USA). The optical density was measured at 540 nm using a multimode detector (Beckman CoulterDTX880, Fullerton, CA, USA).
NO inhibitions were calculated using the following equation:
3 %NOinhibition=A-B/A×100
A is the optical density of the mixture without the sample, while B is the optical density of the mixture with the sample. Dexamethasone was used as a positive control. […]

| Compound | wound width (MCF-7 cells) [%] | suppression of WT1 protein expression in KG-1a cells (WT1 protein [1]) [%] | TEAC (ABTS antioxidant activity) (ABTS assay) | DPPH• inhibition (DPPH assay) | EC1 (FRAP antioxidant activity) (FRAP assay) | suppression of WT1 protein expression in KG-1a cells (WT1 protein [1]; listed as resveratrol) [%] | suppression of WT1 protein expression in K562 cells (WT1 protein [2]) [%] | decrease of total cell number, EoL-1 cells (EoL-1 cells) [%] | decrease of total cell number, KG-1a cells (KG-1a cells [3]) [%] | decrease of rate of proliferation, KG-1a cells (KG-1a cells [4]) | rate of cell proliferation, KG-1a cells (in words) (KG-1a cells [4]) | NO inhibition (NO) |
| --- | --- | --- | --- | --- | --- | --- | --- | --- | --- | --- | --- | --- |
| O=c1c(O)c(-c2ccc(O)cc2O)oc2cc(O)cc(O)c12 [Morin, 2’,3,4’,5,7-pentahydroxyflavonone] | 60.5 ± 3.8 | 32.89 ± 8.76 | comparable TEAC and EC1 values with those of ascorbic acid | significantly more potent than ascorbic acid | comparable TEAC and EC1 values with those of ascorbic acid |  |  |  |  |  |  |  |
| Oc1ccc(/C=C/c2cc(O)cc(O)c2)cc1 [Resveratrol, resveratrol] | 32.8 ± 0.7 |  |  |  |  | 60.27 ± 11.44 | 53.78 ± 4.28 | 74.14 | 39.23 | 86.02% | significantly decreasing rate of cell proliferation |  |
| O=c1c(O)c(-c2ccc(O)c(O)c2)oc2cc(O)cc(O)c12 [Quercetin, quercetin] |  |  | comparable TEAC and EC1 values with those of ascorbic acid | significantly more potent than ascorbic acid | comparable TEAC and EC1 values with those of ascorbic acid |  |  | 23.25 |  | significantly decreasing rates of proliferation | significantly decreasing rate of cell proliferation | potent inhibitory activities against NO; also recorded: significantly more potent inhibition of IL-2, TNF-α, and NO than dexamethasone |
